In ChEMBL document CHEMBL1240367, “Therapy of murine pulmonary aspergillosis with antibody-alliinase conjugates and alliin” (2010) one finds MST, MFC and MIC data, which are given here for three compounds.

In brackets after ≈: the same amount, converted by molar mass.

What all share (assay type): functional
Test [1] concerns Aspergillus fumigatus. Nature of the test: Antifungal activity against Aspergillus fumigatus infected ICR mouse assessed as median survival time at 750 ug, it administered 1 hr post infection repeated on days 4, 6 and 9.
The subject of test [2] is Aspergillus fumigatus. Nature of the test: Antifungal activity against Aspergillus fumigatus infected ICR mouse assessed as median survival time at 1 mg/kg, it administered 1 hr post infection repeated on days 4, 6 and 9. Particulars: route endotracheal.
The test system of test [3] is Aspergillus fumigatus. Nature of the test: Antifungal activity against resting Aspergillus fumigatus.
The subject of test [4] is Aspergillus fumigatus. Nature of the test: Antifungal activity against swollen Aspergillus fumigatus.
The subject of test [5] is Aspergillus fumigatus. Description: Antifungal activity against Aspergillus fumigatus hyphae.

With `C=CC[S+]([O-])C[C@H](N)C(=O)O` (stereo not given in full) [ALLIIN], the MST in test [1] was 7 days.

For the compound `C[C@@H]1[C@H](O)[C@@H](C)/C=C/C=C/C=C/C=C/C=C/C=C/C=C/[C@H](O[C@@H]2O[C@H](C)[C@@H](O)[C@H](N)[C@@H]2O)C[C@@H]2O[C@](O)(C[C@@H](O)C[C@@H](O)[C@H](O)CC[C@@H](O)C[C@@H](O)CC(=O)O[C@H]1C)C[C@H](O)[C@H]2C(=O)O` [AMPHOTERICIN B], the MST in test [2] is 18 days.

With `C=CCS[S+]([O-])CC=C` (stereo not given) [ALLICIN], the MFC in test [3] stood at 15 µg/mL (≈ 92.4 µM); in test [4], 7.5 µg/mL (≈ 46.2 µM). Also, in test [5], the MIC was 30 µg/mL (≈ 185 µM).
